Reference: patent US6100281A, “Sulphonyloxadiazolones” (Bayer Aktiengesellschaft, priority 1997, dated 2000)

Test system: not listed separately
Experiment: logP by HPLC (EEC Directive 79/831 Annex V. A8, gradient method)
Type: physicochemical
Settings: acetonitrile/0.1% aqueous phosphoric acid
Procedure: In Table 1, Me represents methyl. The logP values were determined in accordance with EEC Directive 79/831 Annex V. A8 by HPLC (gradient method, acetonitrile/0.1% aqueous phosphoric acid).

With `CCN(CC)S(=O)(=O)n1c(Oc2cccc(C(F)(F)F)c2)noc1=O` [Example 48] as the molecule, how does the chromatographic logP read?
Its chromatographic logP is 3.68.

Which chromatographic logP does the source give for `CCN(CC)S(=O)(=O)n1c(Oc2ccc(Cl)cc2)noc1=O` [Example 38] here?
Its chromatographic logP is 3.53.

Which chromatographic logP does the source give for `CCN(C)S(=O)(=O)n1c(Oc2ccc(Oc3ccccc3)cc2)noc1=O` [Example 59] here?
The chromatographic logP was 3.83.

Which chromatographic logP does the source give for `Cc1ccc(Oc2noc(=O)n2S(=O)(=O)N(C)C)cc1C` [Example 16] here?
Its chromatographic logP is 3.15.

Which chromatographic logP does the source give for `CN(C)S(=O)(=O)n1c(Oc2ccc(Cl)cc2Cl)noc1=O` [Example 51] here?
The chromatographic logP was 3.29.

For `Cc1cc(C)cc(Oc2noc(=O)n2S(=O)(=O)N(C)C)c1` [Example 32], which chromatographic logP is on record?
The chromatographic logP was 3.18.

With `CN(C)S(=O)(=O)n1c(Oc2ccccc2F)noc1=O` [Example 47] as the molecule, how does the chromatographic logP read?
The chromatographic logP was 2.55.

For `CCN(CC)S(=O)(=O)n1c(Oc2cccc(C)c2C)noc1=O` [Example 36], which chromatographic logP is on record?
Its chromatographic logP is 3.64.

With `Cc1ccc(Oc2noc(=O)n2S(C)(=O)=O)c(C)c1` [Example 10] as the molecule, how does the chromatographic logP read?
Its chromatographic logP is 2.73.

For `CCN(CC)S(=O)(=O)n1c(Oc2cccc(Cl)c2)noc1=O` [Example 56], which chromatographic logP is on record?
Its chromatographic logP is 3.53.

Which chromatographic logP does the source give for `CCS(=O)(=O)n1c(Oc2ccc(C)cc2C)noc1=O` [Example 14] here?
Its chromatographic logP is 2.95.

For `CN(C)S(=O)(=O)n1c(Oc2ccccc2-c2ccccc2)noc1=O` [Example 61], which chromatographic logP is on record?
The chromatographic logP was 3.37.

Which chromatographic logP does the source give for `Cc1ccc(S(=O)(=O)n2c(Oc3ccc(F)cc3)noc2=O)cc1` [Example 6] here?
Its chromatographic logP is 3.39.

Which chromatographic logP does the source give for `CN(C)S(=O)(=O)n1c(Oc2ccccc2)noc1=O` [Example 18] here?
The chromatographic logP was 2.48.

Which chromatographic logP does the source give for `CN(C)S(=O)(=O)n1c(Oc2ccc(-c3ccccc3)cc2)noc1=O` [Example 60] here?
The chromatographic logP was 3.56.

With `CCN(CC)S(=O)(=O)n1c(Oc2ccc(OC)cc2)noc1=O` [Example 44] as the molecule, how does the chromatographic logP read?
The chromatographic logP was 3.1.

With `COC(=O)c1cccc(Oc2noc(=O)n2S(=O)(=O)N(C)C)c1` [Example 34] as the molecule, how does the chromatographic logP read?
Its chromatographic logP is 2.54.

For `CCN(CC)S(=O)(=O)n1c(Oc2ccc3c(c2)CCC3)noc1=O` [Example 58], which chromatographic logP is on record?
The chromatographic logP was 3.88.

Which chromatographic logP does the source give for `CCN(CC)S(=O)(=O)n1c(Oc2cccc(C(=O)OC)c2)noc1=O` [Example 37] here?
The chromatographic logP was 3.09.

With `CCN(CC)S(=O)(=O)n1c(Oc2ccc(C)cc2C)noc1=O` [Example 31] as the molecule, how does the chromatographic logP read?
Its chromatographic logP is 3.72.

Which chromatographic logP does the source give for `COc1ccccc1Oc1noc(=O)n1S(=O)(=O)N(C)C` [Example 23] here?
The chromatographic logP was 2.49.

With `Cc1ccc(Oc2noc(=O)n2S(=O)(=O)N(C)C)c(C)c1` [Example 12] as the molecule, how does the chromatographic logP read?
The chromatographic logP was 3.13.

Which chromatographic logP does the source give for `Cc1cccc(Oc2noc(=O)n2S(=O)(=O)N(C)C)c1C` [Example 30] here?
Its chromatographic logP is 3.04.

For `CN(C)S(=O)(=O)n1c(Oc2cccc(Cl)c2)noc1=O` [Example 55], which chromatographic logP is on record?
The chromatographic logP was 2.95.

With `CCN(CC)S(=O)(=O)n1c(Oc2cc(C)cc(C)c2)noc1=O` [Example 33] as the molecule, how does the chromatographic logP read?
The chromatographic logP was 3.75.

With `CCN(CC)S(=O)(=O)n1c(Oc2cccc(C)c2)noc1=O` [Example 43] as the molecule, how does the chromatographic logP read?
The chromatographic logP was 3.42.

For `CN(C)S(=O)(=O)n1c(Oc2ccc(Oc3ccccc3)cc2)noc1=O` [Example 53], which chromatographic logP is on record?
The chromatographic logP was 3.58.

With `COc1cccc(Oc2noc(=O)n2S(=O)(=O)N(C)C)c1OC` [Example 40] as the molecule, how does the chromatographic logP read?
Its chromatographic logP is 2.58.

For `CN(C)S(=O)(=O)n1c(Oc2ccc(Cl)c(Cl)c2)noc1=O` [Example 22], which chromatographic logP is on record?
The chromatographic logP was 3.37.

With `CCN(CC)S(=O)(=O)n1c(Oc2ccc(Cl)cc2Cl)noc1=O` [Example 63] as the molecule, how does the chromatographic logP read?
The chromatographic logP was 3.88.

For `CN(C)S(=O)(=O)n1c(Oc2cccc(C(F)(F)F)c2)noc1=O` [Example 21], which chromatographic logP is on record?
Its chromatographic logP is 3.13.

With `Cc1cccc(Oc2noc(=O)n2S(=O)(=O)N(C)C)c1` [Example 20] as the molecule, how does the chromatographic logP read?
Its chromatographic logP is 2.83.

Which chromatographic logP does the source give for `COc1ccc(Oc2noc(=O)n2S(=O)(=O)c2ccc(C)cc2)cc1` [Example 3] here?
The chromatographic logP was 3.34.

With `CCN(CC)S(=O)(=O)n1c(Oc2ccccc2)noc1=O` [Example 39] as the molecule, how does the chromatographic logP read?
Its chromatographic logP is 3.06.

For `Cc1ccc(S(=O)(=O)n2c(Oc3ccc(C)cc3C)noc2=O)cc1` [Example 9], which chromatographic logP is on record?
Its chromatographic logP is 3.89.

With `CCN(CC)S(=O)(=O)n1c(Oc2ccc(Oc3ccccc3)cc2)noc1=O` [Example 54] as the molecule, how does the chromatographic logP read?
Its chromatographic logP is 4.19.

For `CCN(CC)S(=O)(=O)n1c(Oc2ccc(F)cc2)noc1=O` [Example 50], which chromatographic logP is on record?
The chromatographic logP was 3.16.

Which chromatographic logP does the source give for `CCN(CC)S(=O)(=O)n1c(Oc2c(C)cccc2C)noc1=O` [Example 42] here?
The chromatographic logP was 3.64.

For `CCN(CC)S(=O)(=O)n1c(Oc2cccc(OC)c2)noc1=O` [Example 28], which chromatographic logP is on record?
Its chromatographic logP is 3.14.

With `CCN(CC)S(=O)(=O)n1c(Oc2cc(C)ccc2C)noc1=O` [Example 35] as the molecule, how does the chromatographic logP read?
The chromatographic logP was 3.7.

For `CN(C)S(=O)(=O)n1c(Oc2ccc3c(c2)CCC3)noc1=O` [Example 57], which chromatographic logP is on record?
Its chromatographic logP is 3.3.

For `CN(C)S(=O)(=O)n1c(Oc2ccc(OC(F)(F)F)cc2)noc1=O` [Example 52], which chromatographic logP is on record?
Its chromatographic logP is 3.3.

With `COc1cccc(OC)c1Oc1noc(=O)n1S(=O)(=O)N(C)C` [Example 65] as the molecule, how does the chromatographic logP read?
Its chromatographic logP is 2.51.

Which chromatographic logP does the source give for `CCN(C)S(=O)(=O)n1c(Oc2cc(C)ccc2C)noc1=O` [Example 64] here?
The chromatographic logP was 3.42.

Which chromatographic logP does the source give for `COc1ccc(Oc2noc(=O)n2S(=O)(=O)N(C)C)cc1` [Example 13] here?
The chromatographic logP was 2.5.

With `Cc1ccc(C)c(Oc2noc(=O)n2S(C)(=O)=O)c1` [Example 8] as the molecule, how does the chromatographic logP read?
Its chromatographic logP is 2.7.

With `CCN(CC)S(=O)(=O)n1c(Oc2ccccc2C)noc1=O` [Example 29] as the molecule, how does the chromatographic logP read?
Its chromatographic logP is 3.33.

Which chromatographic logP does the source give for `Cc1ccc(S(=O)(=O)n2c(Oc3cc(C)ccc3C)noc2=O)cc1` [Example 4] here?
The chromatographic logP was 3.93.

Which chromatographic logP does the source give for `CCN(CC)S(=O)(=O)n1c(Oc2ccccc2OC)noc1=O` [Example 46] here?
Its chromatographic logP is 3.05.

For `CN(C)S(=O)(=O)n1c(Oc2ccc(F)cc2)noc1=O` [Example 19], which chromatographic logP is on record?
The chromatographic logP was 2.58.

With `CCN(CC)S(=O)(=O)n1c(Oc2ccc(C)cc2)noc1=O` [Example 45] as the molecule, how does the chromatographic logP read?
The chromatographic logP was 3.42.

For `CCN(CC)S(=O)(=O)n1c(Oc2cccc(OC)c2OC)noc1=O` [Example 49], which chromatographic logP is on record?
The chromatographic logP was 3.15.

Which chromatographic logP does the source give for `CCN(CC)S(=O)(=O)n1c(Oc2ccc(OC(F)(F)F)cc2)noc1=O` [Example 62] here?
The chromatographic logP was 3.82.

For `CN(C)S(=O)(=O)n1c(Oc2ccc(Cl)cc2)noc1=O` [Example 15], which chromatographic logP is on record?
The chromatographic logP was 2.94.

Test system: Phytophthora infestans
Experiment: whole plant or invertebrate
Type: in vivo
Settings: in Solanum lycopersicum, 72 h, read-out: Efficacy

Which pest or weed control at 100 g/ha does the source give for `Cc1ccc(Oc2noc(=O)n2S(=O)(=O)N(C)C)cc1C` [Example 16] here?
Its pest or weed control at 100 g/ha is 99%.

Which pest or weed control at 100 g/ha does the source give for `Cc1ccc(Oc2noc(=O)n2S(C)(=O)=O)c(C)c1` [Example 10] here?
The pest or weed control at 100 g/ha was 92%.

With `CCS(=O)(=O)n1c(Oc2ccc(C)cc2C)noc1=O` [Example 14] as the molecule, how does the pest or weed control at 100 g/ha read?
Its pest or weed control at 100 g/ha is 97%.

For `CN(C)S(=O)(=O)n1c(Oc2ccccc2)noc1=O` [Example 18], which pest or weed control at 100 g/ha is on record?
The pest or weed control at 100 g/ha was 95%.

With `Cc1ccc(C)c(Oc2noc(=O)n2S(=O)(=O)N(C)C)c1` [Example 1, N,N-dimethyl-3-(2,5-dimethylphenoxy)-5-oxo-[1,2,4]oxadiazole-4-sulphonamide] as the molecule, how does the pest or weed control at 100 g/ha read?
The pest or weed control at 100 g/ha was 99%.

With `Cc1ccc(Oc2noc(=O)n2S(=O)(=O)N(C)C)c(C)c1` [Example 12] as the molecule, how does the pest or weed control at 100 g/ha read?
Its pest or weed control at 100 g/ha is 97%.

Which pest or weed control at 100 g/ha does the source give for `CCS(=O)(=O)n1c(Oc2cc(C)ccc2C)noc1=O` [Example 2, 3-(2,5-dimethylphenoxy)-4-ethanesulphonyl-4H-[1,2,4]oxadiazol-5-one] here?
Its pest or weed control at 100 g/ha is 95%.

For `CN(C)S(=O)(=O)n1c(Oc2ccc(Br)cc2)noc1=O` [Example 17], which pest or weed control at 100 g/ha is on record?
The pest or weed control at 100 g/ha was 94%.

Which pest or weed control at 100 g/ha does the source give for `COc1ccc(Oc2noc(=O)n2S(=O)(=O)N(C)C)cc1` [Example 13] here?
The pest or weed control at 100 g/ha was 92%.
